Experimental data from EP4772510A2, “BENZAZEPINONE COMPOUND AND USE THEREOF” (HANGZHOU BIO-SINCERITY PHARMA-TECHCO., LTD., priority 2023, dated 2025).

Key:
in vivo = details: male, SD, rat, plasma
Experimental: (§1) Example 59: Pharmacokinetic Experiment of Compounds in SD Rats
(§2) SD rats, male, 6-8 weeks old, purchased from Zhejiang Vital River Laboratory Animal Technology Co., Ltd., production license No.: SCXK (Zhejiang) 2019-0001. The animals were maintained in an SPF-grade animal room of Hangzhou Bio-Sincerity Pharma-Tech Co., Ltd., with the experimental animal use license No. of SYXK (Zhejiang) 2021-0014. The animals were used after being acclimatized for at least one week. All experiments were performed in strict compliance with the regulations on experimental animals.
(§3) Four hours after administration, food was provided.
(§4) After administration to SD rats, about 300 µL of blood was collected from the orbit of each animal and anticoagulated with EDTA-Na2. […] The collected blood was placed in an ice bath and centrifuged within 1 h to separate plasma (centrifugation conditions: 2000× g, 10 min, 4 °C). 50 µL of plasma sample was taken, subjected to protein precipitation, and then assayed by UHPLC-MS. The assay data were analyzed and processed using WinNonLin8.1 pharmacokinetic software to obtain pharmacokinetic parameters.

[1] = Pharmacokinetic experiment in SD rats; details: p.o, 5 mg/kg vs i.v, 0.5 mg/kg
Experimental: as §1, §2, §3, §4

U937 cells = assay: Inhibition of TNF-α-induced necroptosis of U937 cells (CCK-8 assay); format: cell-based, human; details: Homo sapiens, U-937, TNF-α 20 ng/mL + BV6 2 µM + Z-VAD-FMK 20 µM, 18 h
How it was run: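 U937 cells (3.6 × 10^4/well) rested 6 h, then exposed to TNF-α 20 ng/mL, BV6 2 µM and Z-VAD-FMK 20 µM plus compound (8-point 3-fold series, 1000–0.46 nM, duplicate) for 18 h. Viability by CCK-8, absorbance at 450 nm after 2-4 h at 37 °C; EC50 calculated.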

HT-29 cells = assay: Inhibition of TNF-α-induced necroptosis of HT-29 cells (SRB method); format: cell-based, human; details: Homo sapiens, HT-29, TNF-α 20 ng/mL + BV6 2 µM + Z-VAD-FMK 20 µM, 18 h
How it was run: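 HT-29 cells (3 × 10^4/well, 24 h) were treated 18 h with compound (8 three-fold dilutions, 1000.00-0.46 nM, duplicate) plus TNF-α 20 ng/mL, BV6 2 µM and Z-VAD-FMK 20 µM final, at 37 °C. Viability was read by SRB absorbance; EC50 values were fitted.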

SMILES | EC50 (U937 cells) | EC50 (HT-29 cells) | further results
O=C(NC1CCc2cccc3c2N(CC3)C1=O)c1ncn(Cc2c(F)cccc2F)n1 (stereo not drawn) [Example 13 in CN20191051 8248X, 1-(2,6-difluorobenzyl)-N-(4-oxo-1,2,3,4,6,7-hexahydroazepino[3,2,1-hi]indol-3-yl)-1H-1,2,4-triazole-3-carboxamide, reference compound] | – | – | AUC(0-t) (in vivo; intravenous, 0.5 mg/kg): 271 ± 38 ng·h/mL; Cmax (in vivo; intravenous, 0.5 mg/kg): 983 ± 106 ng/mL; clearance (in vivo; intravenous, 0.5 mg/kg): 31 ± 4.47 mL/min/kg; half-life (in vivo; intravenous, 0.5 mg/kg): 26.4 ± 15.6 min; AUC(0-t) (in vivo; oral, 5 mg/kg): 340 ± 174 ng·h/mL; CL/F (in vivo; oral, 5 mg/kg): 8.37 ± 4.01 mL/min/kg; Cmax (in vivo; oral, 5 mg/kg): 467 ± 215 ng/mL; half-life (in vivo; oral, 5 mg/kg): 20.4 ± 8.4 min; Fabs (%) [1]: 12.55 ± 6.41%
O=C(NC1CCc2cc(C#Cc3cnn(C(F)F)c3)cc3c2N(CC3)C1=O)c1ncn(Cc2ccc(F)c(F)c2)n1 (stereo not drawn) [III-23, 1-(3,4-difluorobenzyl)-N-(9-((1-(difluoromethyl)-1H-pyrazol-4-yl)ethynyl)-4-oxo-1,2,3,4,6,7-hexahydroazepino[3,2,1-hi]indol-3-yl)-1H-1,2,4-triazole-3-carboxamide] | 10 to 100 nM | 10 to 100 nM | –
O=C(NC1CCc2cc(C#Cc3cnn(C(F)F)c3)cc3c2N(CC3)C1=O)c1ncn(Cc2ccc(F)cc2)n1 (stereo not drawn) [III-24, N-(9-((1-(difluoromethyl)-1H-pyrazol-4-yl)ethynyl)-4-oxo-1,2,3,4,6,7-hexahydroazepino[3,2,1-hi]indol-3-yl)-1-(4-fluorobenzyl)-1H-1,2,4-triazole-3-carboxamide] | 5 to 10 nM | 10 to 100 nM | –
O=C(NC1CCc2cc(C#Cc3cnn4c3COCC4)cc3c2N(CC3)C1=O)c1ncn(Cc2c(F)cccc2F)n1 (stereo not drawn) [III-27, 1-(2,6-difluorobenzyl)-N-(9-((6,7-dihydro-4H-pyrazolo[5,1-c] [1,4]oxazin-3-yl)ethynyl)-4-oxo-1,2,3,4,6,7-hexahydroazepino[3,2,1-hi]indol-3-yl)-1H-1,2,4-triazole-3-carboxamide] | < 5 nM | < 5 nM | –
C=Cn1ncc(C#Cc2cc3c4c(c2)CCN4C(=O)C(NC(=O)c2ncn(Cc4c(F)cccc4F)n2)CC3)c1C=O (stereo not drawn) [III-28, 1-(2,6-difluorobenzyl)-N-(9-((5-formyl-1-vinyl-1H-pyrazol-4-yl)ethynyl)-4-oxo-1,2,3,4,6,7-hexahydroazepino[3,2,1-hi]indol-3-yl)-1H-1,2,4-triazole-3-carboxamide] | < 5 nM | < 5 nM | –
O=C(NC1CCc2cc(C#Cc3cnn(C4COC4)c3)cc3c2N(CC3)C1=O)c1ncn(Cc2c(F)cccc2F)n1 (stereo not drawn) [III-29, 1-(2,6-difluorobenzyl)-N-(9-((1-(oxetan-3-yl)-1H-pyrazol-4-yl)ethynyl)-4-oxo-1,2,3,4,6,7-hexahydroazepino[3,2,1-hi]indol-3-yl)-1H-1,2,4-triazole-3-carboxamide] | < 5 nM | < 5 nM | –
O=C(NC1CCc2cc(C#Cc3cnn(C4CCC4)c3)cc3c2N(CC3)C1=O)c1ncn(Cc2c(F)cccc2F)n1 (stereo not drawn) [III-30, N-(9-((1-cyclobutyl-1H-pyrazol-4-yl)ethynyl)-4-oxo-1,2,3,4,6,7-hexahydroazepino[3,2,1-hi]indol-3-yl)-1-(2,6-difluorobenzyl)-1H-1,2,4-triazole-3-carboxamide] | < 5 nM | < 5 nM | –
Cn1cc(C#Cc2cc3c4c(c2)CCN4C(=O)C(NC(=O)c2ncn(Cc4ccccn4)n2)CC3)cn1 (stereo not drawn) [III-31, N-(9-((1-methyl-1H-pyrazol-4-yl)ethynyl)-4-oxo-1,2,3,4,6,7-hexahydroazepino[3,2,1-hi]indol-3-yl)-1-(pyridin-2-ylmethyl)-1H-1,2,4-triazole-3-carboxamide] | 5 to 10 nM | < 5 nM | –
Cn1cc(C#Cc2cc3c4c(c2)CCN4C(=O)C(NC(=O)c2ncn(Cc4ccccc4)n2)CC3)cn1 (stereo not drawn) [III-32, 1-benzyl-N-(9-((1-methyl-1H-pyrazol-4-yl)ethynyl)-4-oxo-1,2,3,4,6,7-hexahydroazepino[3,2,1-hi]indol-3-yl)-1H-1,2,4-triazole-3-carboxamide] | < 5 nM | < 5 nM | –
Cn1cc(C#Cc2cc3c4c(c2)CCN4C(=O)C(NC(=O)c2ccn(Cc4c(F)cccc4F)n2)CC3)cn1 (stereo not drawn) [XIII-1, 1-(2,6-difluorobenzyl)-N-(9-((1-methyl-1H-pyrazol-4-yl)ethynyl)-4-oxo-1,2,3,4,6,7-hexahydroazepino[3,2,1-hi]indol-3-yl)-1H-pyrazole-3-carboxamide] | 10 to 100 nM | 10 to 100 nM | –
